Experimental data: publication PMC9186412, “Rational Framework for the Design of Trp- and Arg-Rich Peptide Antibiotics Against Multidrug-Resistant Bacteria” (Frontiers in Microbiology, 2022)
Values after ≈ are worked out from the molar mass of the structure shown. Like-named read-outs stand apart in the source and are kept apart here. Where a SMILES comes first, the peptide text is derived from it. Bridges are numbered along the chain shown (N, C = ends). [ ]: non-standard residue; d: D form. The star is where a group is joined. X1 = CC[C@H](C)CCCCC(=O)*; Dab = NCC[C@H](N)C(=O)O

Key:
[1] = system: CDC AR isolates; design: key: S (green), susceptible; I (blue), intermediate; R (red), resistant; details: data provided by the CDC, ref CDC, cited from earlier work
Excerpt: Supplement Table_3.XLSX, sheet "CDC AR isolates profiles" | column: G(-) strains

[2] = system: A. baumannii; test: microbe, parasite or virus in culture; assay type: cell-based, Acinetobacter baumannii
Method: (§1) Bacterial clinical isolates, used for initial screening and in previous studies ([Deslouches et al., 2013]; [Lin et al., 2018]), were anonymously provided by the clinical microbiology laboratory of the University of Pittsburgh medical Center. The panel used for secondary screening was from [CDC (2013)] (Supplementary Table 3), with resistance profiles data. Bacteria are stored in lock-secured –80°C freezer and typically retrieved by obtaining single colonies on agar plates prior for subsequent liquid broth cultures. Suspensions of test bacteria were prepared from log phase of growth by diluting overnight cultures at 1:100 with fresh cation-adjusted MHB (MHB2, Millipore Sigma, United States) and incubating for additional 3–4 h. Bacteria were spun at 3,000 × g for 10 min and the pellet resuspended in test condition media (Millipore Sigma, United States) to determine bacterial turbidity using a Den-1B densitometer (Grant Instruments, United States) at 0.5 McFarland (unit of bacterial density) corresponding to […].
(§2) To examine antibacterial activity, we used minor modifications of a standard growth inhibition assay endorsed by the Clinical and Laboratory Standards Institute (CLSI), as previously described ([Deslouches et al., 2013]). Bacteria were incubated with each of the indicated peptides in MHB2. The bacterial cells were kept in an incubator for 18 h at 37°C, which is linked to a robotic system that feeds a plate reader every hour with one of 8 × 96-well plates. This set-up allows the collection of growth kinetic data at A 570 (absorbance at 570 nm) to examine growth inhibition in real time (BioTek Instruments, United States). […] The assays are typically repeated a second time. If the MIC is different, a third experimental trial is performed to confirm the MIC. To assess bactericidal properties of the peptide, the assay was modified by using 15% fetal bovine serum (FBS, for a more physiologically relevant test condition) mixed with 25% MHB2 and 60% PBS. Bacterial cells (colony forming unit/mL or CFU/mL) were enumerated after incubating treated bacteria for 3 h and plating serially diluted samples on broth agar medium at 37°C overnight. Minimum bactericidal concentration (MBC) was determined as the peptide concentration at which complete bacterial killing was observed. […] Data were analyzed using GraphPad Prism software.

[3] = system: Enterobacter spp; test: microbe, parasite or virus in culture; assay type: cell-based, Enterobacter spp (aerogenes, cloacae)
Method: as §1, §2

[4] = system: K. pneumoniae; test: microbe, parasite or virus in culture; assay type: cell-based, Klebsiella pneumoniae
Method: as §1, §2

[5] = system: ESKAPE pathogens and Escherichia coli; details: initial test strains; MHB2
Method: Bacteria were incubated with each of the indicated peptides in MHB2. […] To assess bactericidal properties of the peptide, the assay was modified by using 15% fetal bovine serum (FBS, for a more physiologically relevant test condition) mixed with 25% MHB2 and 60% PBS. […] Data were analyzed using GraphPad Prism software.

[6] = system: E. coli; test: microbe, parasite or virus in culture; assay type: cell-based, Escherichia coli
Method: as §1, §2

[7] = system: P. aeruginosa; test: microbe, parasite or virus in culture; assay type: cell-based, Pseudomonas aeruginosa
Method: as §1, §2

Compound: CC[C@H](C)CCCCC(=O)N[C@@H](CCN)C(=O)N[C@H](C(=O)N[C@@H](CCN)C(=O)N[C@H]1CCNC(=O)[C@H]([C@@H](C)O)NC(=O)[C@H](CCN)NC(=O)[C@H](CCN)NC(=O)[C@H](CC(C)C)NC(=O)[C@@H](CC(C)C)NC(=O)[C@H](CCN)NC1=O)[C@@H](C)O [Colistin, reference compound] (X1-[Dab]T[Dab][Dab][Dab][dL]L[Dab][Dab]T; lactam 4-C (inferred); N-terminus assumed)
- Antibiotic susceptibility profile ([1]; Acinetobacter baumannii AB273, CDC AR isolate): S
- Antibiotic susceptibility profile ([1]; Acinetobacter baumannii AB274, CDC AR isolate): S
- Antibiotic susceptibility profile ([1]; Acinetobacter baumannii AB275, CDC AR isolate): S
- Antibiotic susceptibility profile ([1]; Acinetobacter baumannii AB276, CDC AR isolate): S
- Antibiotic susceptibility profile ([1]; Enterobacter cloacae E62, CDC AR isolate): S
- Antibiotic susceptibility profile ([1]; Enterobacter cloacae E546, CDC AR isolate): R
- Antibiotic susceptibility profile ([1]; Klebsiella pneumoniae KP542, CDC AR isolate): I
- Antibiotic susceptibility profile ([1]; Klebsiella pneumoniae KP548, CDC AR isolate): R
- Antibiotic susceptibility profile ([1]; Klebsiella pneumoniae KP550, CDC AR isolate): R
- Antibiotic susceptibility profile ([1]; Klebsiella pneumoniae KP552, CDC AR isolate): R
- Antibiotic susceptibility profile ([1]; Pseudomonas aeruginosa PA229, CDC AR isolate): S
- Antibiotic susceptibility profile ([1]; Pseudomonas aeruginosa PA230, CDC AR isolate): S
- Antibiotic susceptibility profile ([1]; Pseudomonas aeruginosa PA231, CDC AR isolate): S
- Antibiotic susceptibility profile ([1]; Pseudomonas aeruginosa PA232, CDC AR isolate): S
- Antibiotic susceptibility profile ([1]; Pseudomonas aeruginosa PA239, CDC AR isolate): R
- MIC ([2]; strain AB273, CDC clinical strain, confirmed by a second or third experimental trial): 0.5 µM (≈ 0.585 µg/mL)
- MIC ([2]; strain AB274, CDC clinical strain, confirmed by a second or third experimental trial): 0.25 µM (≈ 0.292 µg/mL)
- MIC ([2]; strain AB275 (first line, r8), CDC clinical strain, confirmed by a second or third experimental trial): 0.25 µM (≈ 0.292 µg/mL)
- MIC ([2]; strain AB275 (second line, r9), CDC clinical strain, confirmed by a second or third experimental trial): 0.5 µM (≈ 0.585 µg/mL)
- MIC ([2]; strain AB-A2, UPMC clinical strain, MHB2, 18 h, 37°C, A570, confirmed by 2nd or 3rd trial): 0.5 µM (≈ 0.585 µg/mL)
- MIC ([2]; strain AB-A3, UPMC, MHB2, 18 h, 37°C): 0.25 µM (≈ 0.292 µg/mL)
- MIC ([2]; strain AB-F8, UPMC, MHB2, 18 h, 37°C): 0.5 µM (≈ 0.585 µg/mL)
- MIC ([2]; strain AB-F9, UPMC, MHB2, 18 h, 37°C): 0.25 µM (≈ 0.292 µg/mL)
- MIC ([3]; strain EA62 (aerogenes), CDC clinical strain, confirmed by a second or third experimental trial): 2 µM (≈ 2.34 µg/mL)
- MIC ([3]; strain EA518 (aerogenes), UPMC, MHB2, 18 h, 37°C): 0.25 µM (≈ 0.292 µg/mL)
- MIC ([3]; strain EA547 (aerogenes), CDC clinical strain, confirmed by a second or third experimental trial): 0.25 µM (≈ 0.292 µg/mL)
- MIC ([3]; strain EA596 (aerogenes), UPMC, MHB2, 18 h, 37°C): 0.25 µM (≈ 0.292 µg/mL)
- MIC ([3]; strain EC470 (cloacae), UPMC, MHB2, 18 h, 37°C): 0.25 µM (≈ 0.292 µg/mL)
- MIC ([3]; strain EC544 (cloacae), CDC clinical strain, confirmed by a second or third experimental trial): 4 µM (≈ 4.68 µg/mL)
- MIC ([3]; strain EC545 (cloacae), CDC clinical strain, confirmed by a second or third experimental trial): 2 µM (≈ 2.34 µg/mL)
- MIC ([3]; strain EC560 (cloacae), UPMC, MHB2, 18 h, 37°C): 0.25 µM (≈ 0.292 µg/mL)
- MIC ([4]; colistin-resistant CDC isolate KP46, MHB2): 4 µM (≈ 4.68 µg/mL)
- MIC ([4]; colistin-resistant CDC isolate KP87, MHB2): >16 µM
- MIC ([4]; colistin-resistant CDC isolate KP125, MHB2): 8 µM (≈ 9.36 µg/mL)
- MIC ([4]; colistin-resistant CDC isolate KP507, MHB2): 16 µM (≈ 18.7 µg/mL)
- MIC ([4]; colistin-resistant CDC isolate KP1010, MHB2): 16 µM (≈ 18.7 µg/mL)
- MIC ([4]; colistin-resistant CDC isolate KP1041, MHB2): >16 µM
- MIC ([4]; colistin-resistant CDC isolate KP1045, MHB2): >16 µM
- MIC ([4]; strain KP542, CDC clinical strain, confirmed by a second or third experimental trial): >16 µM
- MIC ([4]; strain KP548, CDC clinical strain, confirmed by a second or third experimental trial): 0.25 µM (≈ 0.292 µg/mL)
- MIC ([4]; strain KP550, CDC clinical strain, confirmed by a second or third experimental trial): 0.25 µM (≈ 0.292 µg/mL)
- MIC ([4]; strain KP552, CDC clinical strain, confirmed by a second or third experimental trial): 0.25 µM (≈ 0.292 µg/mL)
- MIC ([4]; strain KPA5 (colistin-resistant), UPMC, MHB2, 18 h, 37°C): >16 µM
- MIC ([4]; strain KPB3, UPMC, MHB2, 18 h, 37°C): 0.25 µM (≈ 0.292 µg/mL)
- MIC ([4]; strain KPC3, UPMC, MHB2, 18 h, 37°C): 0.25 µM (≈ 0.292 µg/mL)
- activity against the GPB strains [5]: inactive
- MIC ([6]; strain Eco541, CDC clinical strain, confirmed by a second or third experimental trial): 1 µM (≈ 1.17 µg/mL)
- MIC ([6]; strain Eco543, CDC clinical strain, confirmed by a second or third experimental trial): 8 µM (≈ 9.36 µg/mL)
- MIC ([6]; strain Eco546, CDC clinical strain, confirmed by a second or third experimental trial): 0.25 µM (≈ 0.292 µg/mL)
- MIC ([6]; strain Eco549, CDC clinical strain, confirmed by a second or third experimental trial): 1 µM (≈ 1.17 µg/mL)
- MIC ([6]; strain Eco25922, MHB2, 18 h, 37°C): 0.5 µM (≈ 0.585 µg/mL)
- MIC ([6]; strain YDC107, UPMC, MHB2, 18 h, 37°C): 0.5 µM (≈ 0.585 µg/mL)
- MIC ([6]; strain YDC337, UPMC, MHB2, 18 h, 37°C): 0.25 µM (≈ 0.292 µg/mL)
- MIC ([6]; strain YDC748, UPMC, MHB2, 18 h, 37°C): 0.25 µM (≈ 0.292 µg/mL)
- MIC ([7]; strain PA01, MHB2, 18 h, 37°C): 0.5 µM (≈ 0.585 µg/mL)
- MIC ([7]; strain PA14, MHB2, 18 h, 37°C): 0.25 µM (≈ 0.292 µg/mL)
- MIC ([7]; strain PA97-5, UPMC, MHB2, 18 h, 37°C): 0.25 µM (≈ 0.292 µg/mL)
- MIC ([7]; strain PA129-5, UPMC, MHB2, 18 h, 37°C): 0.5 µM (≈ 0.585 µg/mL)
- MIC ([7]; strain PA216, CDC clinical strain, confirmed by a second or third experimental trial): 0.5 µM (≈ 0.585 µg/mL)
- MIC ([7]; strain PA229, CDC clinical strain, confirmed by a second or third experimental trial): >16 µM
- MIC ([7]; strain PA230, CDC clinical strain, confirmed by a second or third experimental trial): 0.5 µM (≈ 0.585 µg/mL)
- MIC ([7]; strain PA231, CDC clinical strain, confirmed by a second or third experimental trial): 1 µM (≈ 1.17 µg/mL)
